From patent publication EP0232893A2, “Antibiotics of the streptogramine type, a microbiological process for their preparation and their use as medicaments and food additives” (HOECHST AKTIENGESELLSCHAFT, priority 1986, dated 1987)
*1 amine or outer side, *2 acyl side, *3 side chain or, on linkers, in order; H or OH if unused. Where a SMILES comes first, the peptide text is derived from it. Bridges are numbered along the chain shown (N, C = ends). [ ]: non-standard residue; d: D form. The star is where a group is joined. X1 = CC(C)[C@H](C)[C@@H](C(=O)[*:2])N(C)[*:1]; d(cisHyp) = O=C(O)[C@H]1C[C@@H](O)CN1; Picolinoyl(3-OH) = O=C(c1ncccc1O)*; NMePhg = CN[C@H](C(=O)O)c1ccccc1; Sar = CNCC(=O)O

Experiment: Feeding trials in animals, growth promotion
Format: in vivo, Mastgeflügel, Schweinen, Mastrindern, Schafen und Kaninchen
Conditions: e.g. fattening poultry, pigs, fattening cattle, sheep, rabbits
Source text: Dies gilt auch für die einzelnen Komponenten, insbesondere für das Neoviridogrisein IV, für das ein wachstumsfördernder -Effekt bisher nicht beschrieben war. Auch die Legeleistung von Geflügel, insbesondere das Eigewicht und die Milchleistung von Milchkühen, -schafen und -ziegen wird durch den Antibiotikakomplex oder seine einzelnen Komponenten positiv beeinflußt.
Zur Erzielung des Effekts verwendet man Konzentrationen von 2 - 100 ppm, vorzugsweise 2 - 50 ppm, insbesondere 5 - 20 ppm, bezogen auf Alleinfutter. Entsprechend höher sind die Konzentrationen, wenn die Antibiotika als Zusatz zu Beifutter verabreicht werden.

SMILES: CC(C)C[C@H]1NC(=O)[C@@H](NC(=O)c2ncccc2O)[C@@H](C)OC(=O)[C@H](c2ccccc2)N(C)C(=O)[C@H](C)NC(=O)[C@H]([C@@H](C)C(C)C)N(C)C(=O)CN(C)C(=O)[C@H]2C[C@@H](O)CN2C1=O [Neoviridogrisein IV] ({Picolinoyl(3-OH)}-T[dL][d(cisHyp)][Sar][X1]A[NMePhg]; ester 1-C)
- wachstumsfördernde Wirkung: ausgeprägte wachstumsfördernde Wirkung
